These results are taken from patent publication US20210085686A1, “DELIVERY OF ACTIVE AGENTS USING NANOFIBER WEBS” (CorMedix Inc., priority 2015, published 2021).

Molecules are shown by their SMILES. Values after ≈ are worked out from the molar mass of the structure shown.

The nature of data set [1]: maximum solubility of taurolidine in HFP (preliminary testing). The class given is physicochemical. The note with it: organic solvent or mixture; solvent 1,1,1,3,3,3-hexafluoro-2-propanol (HFP). The protocol: All of the polymers and the taurolidine were dissolved in 1,1,1,3,3,3-hexafluoro-2-propanol (HFP; Oakwood Chemical) for processing into small diameter (SD) and large diameter (LD) fibers. […] Thus, for preliminary testing, the taurolidine concentration in the electrospinning solutions was maintained at approximately 100 mg/ml.

The next data set concerns Microbes. The note with it: microbes killed and toxins inactivated; cited from earlier work.

Turning to `O=S1(=O)CCN(CN2CCS(=O)(=O)NC2)CN1` [taurolidine, bis(1,1-dioxoperhydro-1,2,4-thiadiazinyl-4)-methane], in data set [1], the solubility was around 218 mg/mL (≈ 767 mM). Besides, the “destruction time in vitro” value in the data set with Microbes was 30 min.
